In general, melting point refers to the temperature, or range, at which the solid turns liquid. `COC(=O)c1cccc(-c2nnc(-c3ccccc3[N+](=O)[O-])cc2Cc2ccccc2)c1` came in with a melting point of 130 °C.

For the origin of these results see patent US7579350B2, “Scaffolds for α-helix mimicry” (The Scripps Research Institute, priority 2005, dated 2009).
